# Test results: patent US20080153896A1, “Polymorphic Forms of an HMG-CoA Reductase Inhibitor and Uses Thereof” (priority 2006, published 2008)
# Assay: Stability (integrity) testing of amorphous and polymorphic form under storage conditions, RP-HPLC
# Format: physicochemical
# Parameters: Impurity RRT 1.104 / Impurity RRT 1.698: unit not given beside the values
# Description: The integrity of the different forms of the (3R, 5R)-7-[2-(4-fluorophenyl)-5-isopropyl-3-phenyl-4-[(4-hydroxymethylphenylamino)carbonyl]-pyrrol-1-yl]-3,5-dihydroxy-heptanoic acid, hemi calcium salt, was tested under different atmospheric conditions to determine the stability of the amorphous and polymorphic form of the drug in various storage environments. Reversed Phase-HPLC (RP-HPLC) was used to separate (3R, 5R)-7-[2-(4-fluorophenyl)-5-isopropyl-3-phenyl-4-[(4-hydroxymethylphenylamino)carbonyl]-pyrrol-1-yl]-3,5-dihydroxy-heptanoic acid, hemi calcium salt, from smaller molecules representing breakdown products as well as oxidized drug. The relative amount of the drug was reported as a percent of total absorption by UV. The total peak area of all UV absorption impurities was used to define total impurity of the drug. Impurities are defined by their relative retention time (RRT) compared to native drug. Samples were injected onto a C18 column using standard temperature, gradient and run-time conditions.
# The results of this integrity testing for the amorphous form of (3R, 5R)-7-[2-(4-fluorophenyl)-5-isopropyl-3-phenyl-4-[(4-hydroxymethylphenylamino)carbonyl]-pyrrol-1-yl]-3,5-dihydroxy-heptanoic acid, hemi calcium salt, is shown in Table 5.
# Three separate batches of polymorphic Form I of (3R, 5R)-7-[2-(4-fluorophenyl)-5-isopropyl-3-phenyl-4-[(4-hydroxymethylphenylamino)carbonyl]-pyrrol-1-yl]-3,5-dihydroxy-heptanoic acid, hemi calcium salt, were prepared and tested under the same atmospheric conditions described for the amorphous form.
# [1] = 25° C./60% RH 12M, hemi calcium salt
# [2] = 30° C./65% RH 1M, hemi calcium salt
# [3] = 30° C./65% RH 2M, hemi calcium salt
# [4] = 30° C./65% RH 3M, hemi calcium salt
# [5] = 30° C./65% RH 6M, hemi calcium salt
# [6] = 30° C./65% RH 9M, hemi calcium salt
# [7] = 30° C./65% RH 12M, hemi calcium salt
# [8] = 40° C./75% RH 1M, hemi calcium salt
# [9] = 40° C./75% RH 2M, hemi calcium salt
# [10] = 40° C./75% RH 3M, hemi calcium salt
# [11] = 40° C./75% RH 6M, hemi calcium salt
# [12] = Initial, listed as Batch 2 of Polymorphic Form I, hemi calcium salt
smiles,measurement,setting,value
"CC(C)c1c(C(=O)Nc2ccc(CO)cc2)c(-c2ccccc2)c(-c2ccc(F)cc2)n1CC[C@@H](O)C[C@@H](O)CC(=O)[O-].CC(C)c1c(C(=O)Nc2ccc(CO)cc2)c(-c2ccccc2)c(-c2ccc(F)cc2)n1CC[C@@H](O)C[C@@H](O)CC(=O)[O-].[Ca+2] [PP00105, (3R, 5R)-7-[2-(4-fluorophenyl)-5-isopropyl-3-phenyl-4-[(4-hydroxymethylphenylamino)carbonyl]-pyrrol-1-yl]-3,5-dihydroxy-heptanoic acid, hemi calcium salt]",Impurity RRT 1.439,25° C./60% RH 12M,0.152
same,Impurity RRT 1.596,25° C./60% RH 12M,0.046
same,Impurity RRT 1.698,25° C./60% RH 12M,0.053
same,Assay,[1],98.25 % W/W
same,Highest Impurity,[1],0.407
same,Impurity RRT 0.935,[1],0.365
same,Impurity RRT 1.045,[1],0.407
same,Impurity RRT 1.640,[1],0.052
same,Total Impurity,[1],1.522
same,Water,[1],5.02 % W/W
same,Description,30° C./65% RH 1M,White
same,Impurity RRT 1.096,30° C./65% RH 1M,0.24
same,Impurity RRT 1.439,30° C./65% RH 1M,0.151
same,Impurity RRT 1.596,30° C./65% RH 1M,0.076
same,Impurity RRT 1.698,30° C./65% RH 1M,0.065
same,Water,30° C./65% RH 1M,4.16 % W/W
same,Assay,[2],98.23 % W/W
same,Highest Impurity,[2],0.444
same,Impurity RRT 0.935,[2],0.396
same,Impurity RRT 1.045,[2],0.444
same,Impurity RRT 1.64,[2],0.06
same,Total Impurity,[2],1.44
same,Description,30° C./65% RH 2M,White
same,Impurity RRT 1.096,30° C./65% RH 2M,0.242
same,Impurity RRT 1.183,30° C./65% RH 2M,0.063
same,Impurity RRT 1.439,30° C./65% RH 2M,0.165
same,Impurity RRT 1.596,30° C./65% RH 2M,0.074
same,Impurity RRT 1.698,30° C./65% RH 2M,0.069
same,Assay,[3],98.20 % W/W
same,Highest Impurity,[3],0.449
same,Impurity RRT 0.935,[3],0.411
same,Impurity RRT 1.045,[3],0.449
same,Impurity RRT 1.64,[3],0.063
same,Total Impurity,[3],1.54
same,Water,[3],4.16 % W/W
same,Description,30° C./65% RH 3M,White
same,Impurity RRT 1.096,30° C./65% RH 3M,0.229
same,Impurity RRT 1.439,30° C./65% RH 3M,0.158
same,Impurity RRT 1.596,30° C./65% RH 3M,0.074
same,Impurity RRT 1.698,30° C./65% RH 3M,0.062
same,Assay,[4],98.14 % W/W
same,Highest Impurity,[4],0.437
same,Impurity RRT 0.935,[4],0.399
same,Impurity RRT 1.045,[4],0.437
same,Impurity RRT 1.64,[4],0.058
same,Total Impurity,[4],1.42
same,Water,[4],5.02 % W/W
same,Description,30° C./65% RH 6M,White
same,Impurity RRT 1.096,30° C./65% RH 6M,0.218
same,Impurity RRT 1.439,30° C./65% RH 6M,0.156
same,Impurity RRT 1.596,30° C./65% RH 6M,0.070
same,Impurity RRT 1.698,30° C./65% RH 6M,0.063
same,Assay,[5],98.09 % W/W
same,Highest Impurity,[5],0.460
same,Impurity RRT 0.935,[5],0.409
same,Impurity RRT 1.045,[5],0.460
same,Impurity RRT 1.640,[5],0.054
same,Total Impurity,[5],1.430
same,Water,[5],4.96 % W/W
same,Description,30° C./65% RH 9M,White
same,Impurity RRT 1.096,30° C./65% RH 9M,0.232
same,Impurity RRT 1.183,30° C./65% RH 9M,0.036
same,Impurity RRT 1.439,30° C./65% RH 9M,0.182
same,Impurity RRT 1.596,30° C./65% RH 9M,0.053
same,Impurity RRT 1.698,30° C./65% RH 9M,0.048
same,Assay,[6],98.07 % W/W
same,Highest Impurity,[6],0.442
same,Impurity RRT 0.935,[6],0.404
same,Impurity RRT 1.045,[6],0.442
same,Impurity RRT 1.640,[6],0.058
same,Total Impurity,[6],1.455
same,Water,[6],5.10 % W/W
same,Description,30° C./65% RH 12M,White
same,Impurity RRT 0.138,30° C./65% RH 12M,0.200
same,Impurity RRT 1.096,30° C./65% RH 12M,0.192
same,Impurity RRT 1.183,30° C./65% RH 12M,0.048
same,Impurity RRT 1.439,30° C./65% RH 12M,0.163
same,Impurity RRT 1.596,30° C./65% RH 12M,0.065
same,Impurity RRT 1.698,30° C./65% RH 12M,0.045
same,Assay,[7],98.35 % W/W
same,Highest Impurity,[7],0.399
same,Impurity RRT 0.935,[7],0.399
same,Impurity RRT 1.045,[7],0.360
same,Impurity RRT 1.640,[7],0.048
same,Total Impurity,[7],1.520
same,Water,[7],4.87 % W/W
same,Description,40° C./75% RH 1M,White
same,Impurity RRT 1.096,40° C./75% RH 1M,0.244
same,Impurity RRT 1.439,40° C./75% RH 1M,0.153
same,Impurity RRT 1.596,40° C./75% RH 1M,0.080
same,Impurity RRT 1.698,40° C./75% RH 1M,0.062
same,Assay,[8],98.15 % W/W
same,Highest Impurity,[8],0.444
same,Impurity RRT 0.935,[8],0.404
same,Impurity RRT 1.045,[8],0.444
same,Impurity RRT 1.64,[8],0.061
same,Total Impurity,[8],1.45
same,Water,[8],4.71 % W/W
same,Description,40° C./75% RH 2M,White
same,Impurity RRT 1.096,40° C./75% RH 2M,0.234
same,Impurity RRT 1.183,40° C./75% RH 2M,0.072
same,Impurity RRT 1.439,40° C./75% RH 2M,0.175
same,Impurity RRT 1.596,40° C./75% RH 2M,0.079
same,Impurity RRT 1.698,40° C./75% RH 2M,0.065
same,Assay,[9],98.19 % W/W
same,Highest Impurity,[9],0.457
same,Impurity RRT 0.935,[9],0.416
same,Impurity RRT 1.045,[9],0.457
same,Impurity RRT 1.64,[9],0.066
same,Total Impurity,[9],1.56
same,Water,[9],4.35 % W/W
same,Description,40° C./75% RH 3M,White
same,Impurity RRT 1.096,40° C./75% RH 3M,0.229
same,Impurity RRT 1.439,40° C./75% RH 3M,0.165
same,Impurity RRT 1.596,40° C./75% RH 3M,0.078
same,Impurity RRT 1.698,40° C./75% RH 3M,0.06
same,Assay,[10],98.09 % W/W
same,Highest Impurity,[10],0.442
same,Impurity RRT 0.935,[10],0.413
same,Impurity RRT 1.045,[10],0.442
same,Impurity RRT 1.64,[10],0.056
same,Total Impurity,[10],1.44
same,Water,[10],4.45 % W/W
same,Description,40° C./75% RH 6M,White
same,Impurity RRT 0.138,40° C./75% RH 6M,0.270
same,Impurity RRT 1.096,40° C./75% RH 6M,0.217
same,Impurity RRT 1.439,40° C./75% RH 6M,0.146
same,Impurity RRT 1.596,40° C./75% RH 6M,0.073
same,Impurity RRT 1.698,40° C./75% RH 6M,0.052
same,Assay,[11],98.14 % W/W
same,Highest Impurity,[11],0.410
same,Impurity RRT 0.935,[11],0.377
same,Impurity RRT 1.045,[11],0.410
same,Impurity RRT 1.640,[11],0.045
same,Total Impurity,[11],1.590
same,Water,[11],5.45 % W/W
same,Description,Initial,White
same,Impurity RRT 1.096,Initial,0.229
same,Impurity RRT 1.439,Initial,0.168
same,Impurity RRT 1.596,Initial,0.075
same,Impurity RRT 1.698,Initial,0.062
same,Assay,[12],98.45 % W/W
same,Highest Impurity,[12],0.457
same,Impurity RRT 0.935,[12],0.413
same,Impurity RRT 1.045,[12],0.457
same,Impurity RRT 1.64,[12],0.057
same,Total Impurity,[12],1.46
same,Water,[12],4.92 % W/W
